{"source": "patent US20150105252A1", "about": "“SUBSTITUTED PYRAZOLES AS HERBICIDES” (E I DU PONT DE NEMOURS AND COMPANY, priority 2013, published 2015)", "key": {"common ragweed": {"system": "common ragweed", "assay": "Test F postemergence", "assay_type": "in vivo, Ambrosia elation", "conditions": "scale 0 to 100", "excerpt": "(§1) Seeds of plant species selected from corn (Zea mays), soybean (Glycine max), velvetleaf (Abutilon theophrasti), lambsquarters (Chenopodium album), wild poinsettia (Euphorbia heterophylla), pigweed, palmer (palmer pigweed, Amaranthus palmeri), common waterhemp (Amaranthus rudis), surinam grass (Brachiaria decumbens), large crabgrass (Digitaria sanguinalis), crabgrass, Brazil (Brazilian crabgrass, Digitaria horizontalis), fall panicum (Panicum dichotomiflorum), giant foxtail (Setaria faberii), green foxtail (Setaria viridis), goosegrass (Eleusine indica), johnsongrass (Sorghum halepense), common ragweed (Ambrosia elation), barnyardgrass (Echinochloa crus-galli), southern sandbur (Cenchrus echinatus), arrowleaf sida (Sida rhombifolia), Italian ryegrass (Lolium multiflorum), dayflower, VA (Virginia (VA) dayflower, Commelina virginica), field bindweed (Convolvulus arvensis), cocklebur (common cocklebur, Xanthium strumarium), morningglory (Ipomoea coccinea), nightshade (eastern black nightshade, Solanum ptycanthum), kochia (Kochia scoparia), yellow nutsedge (Cyperus esculentus), and hairy beggarticks (Bidens pilosa), were planted into a silt loam soil and treated preemergence with test chemicals formulated in a non-phytotoxic solvent mixture which included a surfactant.\n(§2) At the same time, plants from these crop and weed species and also horseweed (Canada horseweed, Conyza canadensis), smartweed (ladysthumb smartweed, Polygonum persicaria), waterhemp_RES1, (ALS & Triazine resistant common waterhemp, Amaranthus rudis), and waterhemp_RES2, (ALS & HPPD resistant common waterhemp, Amaranthus rudis) were treated with postemergence applications of test chemicals formulated in the same manner. Plants ranged in height from 2 to 18 cm for postemergence treatments (1- to 4-leaf stage). Treated plants and controls were maintained in a greenhouse for 14 to 21 days, after which time all species were compared to controls and visually evaluated. Plant response ratings, summarized in Table F, are based on a scale of 0 to 100 where 0 is no effect and 100 is complete control. A dash (-) response means no test result."}, "ryegrass, Italian": {"system": "ryegrass, Italian", "assay": "Test E preemergence", "assay_type": "in vivo, Lolium multiflorum", "conditions": "21 days, scale 0 to 100", "excerpt": "(§3) Seeds of plant species selected from bermudagrass (Cynodon dactylon), Surinam grass (Brachiaria decumbens), crabgrass, large (large crabgrass, Digitaria sanguinalis), crabgrass, naked (naked crabgrass, Digitaria nuda), foxtail, green (green foxtail, Setaria viridis), johnsongrass (Sorghum halepense), kochia (Kochia scoparia), morningglory (pitted morningglory, Ipomoea lacunosa), nutsedge, purple (purple nutsedge, Cyperus rotundus), ragweed (common ragweed, Ambrosia elation), mustard, black (black mustard, Brassica nigra), guineagrass (Panicum maximum), dallisgrass (Paspalum dilatatum), barnyardgrass (Echinochloa crus-galli), sandbur (southern sandbur, Cenchrus echinatus), sowthistle (common sowthistle, Sonchus oleraceous), ryegrass, Italian (Italian ryegrass, Lolium multiflorum), signalgrass (broadleaf signalgrass, Brachiaria platyphylla), dayflower, VA (Virginia (VA) dayflower, Commelina virginica), bluegrass (annual bluegrass, Poa annua), quackgrass (Elytrigia repens), mallow (common mallow, Malva sylvestris), buckwheat, wild (wild buckwheat, Polygonum convolvulus), leafy spurge (Euphorbia esula), common chickweed (Stellaria media), wild poinsettia (Euphorbia heterophylla), pigweed, palmer (palmer pigweed, Amaranthus palmeri), and pigweed (redroot pigweed, Amaranthus retroflexus) were planted into a blend of loam soil and sand and treated preemergence with test chemicals formulated in a non-phytotoxic solvent mixture which included a surfactant.\n(§4) Treated plants and controls were maintained in a greenhouse for 21 days, after which time all species were compared to controls and visually evaluated. Plant response ratings, summarized in Table E, are based on a scale of 0 to 100 where 0 is no effect and 100 is complete control. A dash (-) response means no test result."}, "dayflower, VA": {"system": "dayflower, VA", "assay": "Test F postemergence", "assay_type": "in vivo, Commelina virginica", "conditions": "scale 0 to 100", "excerpt": "as §1, §2"}, "kochia": {"system": "kochia", "assay": "Test E preemergence", "assay_type": "in vivo, Kochia scoparia", "conditions": "21 days, scale 0 to 100", "excerpt": "as §3, §4"}, "bluegrass": {"system": "bluegrass", "assay": "Test E preemergence", "assay_type": "in vivo, Poa annua", "conditions": "21 days, scale 0 to 100", "excerpt": "as §3, §4"}, "horseweed": {"system": "horseweed", "assay": "Test F postemergence", "assay_type": "in vivo, Conyza canadensis", "conditions": "scale 0 to 100", "excerpt": "as §1, §2"}, "buckwheat, wild": {"system": "buckwheat, wild", "assay": "Test E preemergence", "assay_type": "in vivo, Polygonum convolvulus", "conditions": "21 days, scale 0 to 100", "excerpt": "as §3, §4"}, "pigweed, palmer": {"system": "pigweed, palmer", "assay": "Test F postemergence", "assay_type": "in vivo, Amaranthus palmeri", "conditions": "scale 0 to 100", "excerpt": "as §1, §2"}, "sandbur": {"system": "sandbur", "assay": "Test E preemergence", "assay_type": "in vivo, Cenchrus echinatus", "conditions": "21 days, scale 0 to 100", "excerpt": "as §3, §4"}, "foxtail, green": {"system": "foxtail, green", "assay": "Test E preemergence", "assay_type": "in vivo, Setaria viridis", "conditions": "21 days, scale 0 to 100", "excerpt": "as §3, §4"}}, "data": [{"smiles": "CCc1cc(C(=O)NCC(F)(F)F)nn1Cc1ccnc(C(F)(F)F)c1", "note": "[Compound 78, 5-ethyl-N-(2,2,2-trifluoroethyl)-1-[[(2-trifluoromethyl)-4-pyridinyl]methyl]-1H-pyrazole-3-carboxamide]", "values": [{"measurement": "Plant response rating, Common Ragweed", "setting": "common ragweed; Postemergence, 31 g ai/ha", "value": 65}, {"measurement": "Plant response rating, Common Ragweed", "setting": "common ragweed; Postemergence, 125 g ai/ha", "value": 70}, {"measurement": "Plant response rating, Common Ragweed", "setting": "common ragweed; Postemergence, 250 g ai/ha", "value": 80}, {"measurement": "Plant response rating, Common Ragweed", "setting": "common ragweed; postemergence, 62 g ai/ha", "value": 50}, {"measurement": "Plant response rating, Common Ragweed", "setting": "common ragweed; postemergence, 500 g ai/ha", "value": 95}, {"measurement": "Plant response rating, Ryegrass, Italian", "setting": "ryegrass, Italian; 16 g ai/ha", "value": 10}, {"measurement": "Plant response rating, Ryegrass, Italian", "setting": "ryegrass, Italian; 31 g ai/ha", "value": 50}, {"measurement": "Plant response rating, Ryegrass, Italian", "setting": "ryegrass, Italian; 62 g ai/ha", "value": 90}, {"measurement": "Plant response rating, Ryegrass, Italian", "setting": "ryegrass, Italian; 125 g ai/ha", "value": 100}, {"measurement": "Plant response rating, Ryegrass, Italian", "setting": "ryegrass, Italian; 250 g ai/ha", "value": 100}, {"measurement": "Plant response rating, Dayflower, VA", "setting": "dayflower, VA; Postemergence, 31 g ai/ha", "value": 20}, {"measurement": "Plant response rating, Dayflower, VA", "setting": "dayflower, VA; Postemergence, 125 g ai/ha", "value": 60}, {"measurement": "Plant response rating, Dayflower, VA", "setting": "dayflower, VA; Postemergence, 250 g ai/ha", "value": 90}, {"measurement": "Plant response rating, Dayflower, VA", "setting": "dayflower, VA; postemergence, 62 g ai/ha", "value": 50}, {"measurement": "Plant response rating, Dayflower, VA", "setting": "dayflower, VA; postemergence, 500 g ai/ha", "value": 98}, {"measurement": "Plant response rating, Kochia", "setting": "kochia; 16 g ai/ha", "value": 100}, {"measurement": "Plant response rating, Kochia", "setting": "kochia; 31 g ai/ha", "value": 100}, {"measurement": "Plant response rating, Kochia", "setting": "kochia; 62 g ai/ha", "value": 100}, {"measurement": "Plant response rating, Kochia", "setting": "kochia; 125 g ai/ha", "value": 100}, {"measurement": "Plant response rating, Kochia", "setting": "kochia; 250 g ai/ha", "value": 100}, {"measurement": "Plant response rating, Bluegrass", "setting": "bluegrass; 16 g ai/ha", "value": 40}, {"measurement": "Plant response rating, Bluegrass", "setting": "bluegrass; 31 g ai/ha", "value": 75}, {"measurement": "Plant response rating, Bluegrass", "setting": "bluegrass; 62 g ai/ha", "value": 90}, {"measurement": "Plant response rating, Bluegrass", "setting": "bluegrass; 125 g ai/ha", "value": 100}, {"measurement": "Plant response rating, Bluegrass", "setting": "bluegrass; 250 g ai/ha", "value": 100}, {"measurement": "Plant response rating, Horseweed", "setting": "horseweed; Postemergence, 31 g ai/ha", "value": 25}, {"measurement": "Plant response rating, Horseweed", "setting": "horseweed; Postemergence, 125 g ai/ha", "value": 40}, {"measurement": "Plant response rating, Horseweed", "setting": "horseweed; Postemergence, 250 g ai/ha", "value": 50}, {"measurement": "Plant response rating, Horseweed", "setting": "horseweed; postemergence, 62 g ai/ha", "value": 30}, {"measurement": "Plant response rating, Horseweed", "setting": "horseweed; postemergence, 500 g ai/ha", "value": 75}, {"measurement": "Plant response rating, Buckwheat, Wild", "setting": "buckwheat, wild; 16 g ai/ha", "value": 60}, {"measurement": "Plant response rating, Buckwheat, Wild", "setting": "buckwheat, wild; 31 g ai/ha", "value": 100}, {"measurement": "Plant response rating, Buckwheat, Wild", "setting": "buckwheat, wild; 62 g ai/ha", "value": 100}, {"measurement": "Plant response rating, Buckwheat, Wild", "setting": "buckwheat, wild; 125 g ai/ha", "value": 100}, {"measurement": "Plant response rating, Buckwheat, Wild", "setting": "buckwheat, wild; 250 g ai/ha", "value": 100}, {"measurement": "Plant response rating, Pigweed, Palmer", "setting": "pigweed, palmer; Postemergence, 31 g ai/ha", "value": 50}, {"measurement": "Plant response rating, Pigweed, Palmer", "setting": "pigweed, palmer; Postemergence, 125 g ai/ha", "value": 70}, {"measurement": "Plant response rating, Pigweed, Palmer", "setting": "pigweed, palmer; Postemergence, 250 g ai/ha", "value": 90}, {"measurement": "Plant response rating, Pigweed, Palmer", "setting": "pigweed, palmer; postemergence, 62 g ai/ha", "value": 60}, {"measurement": "Plant response rating, Pigweed, Palmer", "setting": "pigweed, palmer; postemergence, 500 g ai/ha", "value": 98}, {"measurement": "Plant response rating, Sandbur", "setting": "sandbur; 16 g ai/ha", "value": 40}, {"measurement": "Plant response rating, Sandbur", "setting": "sandbur; 31 g ai/ha", "value": 50}, {"measurement": "Plant response rating, Sandbur", "setting": "sandbur; 62 g ai/ha", "value": 90}, {"measurement": "Plant response rating, Sandbur", "setting": "sandbur; 125 g ai/ha", "value": 95}, {"measurement": "Plant response rating, Sandbur", "setting": "sandbur; 250 g ai/ha", "value": 100}, {"measurement": "Plant response rating, Foxtail, Green", "setting": "foxtail, green; 16 g ai/ha", "value": 50}, {"measurement": "Plant response rating, Foxtail, Green", "setting": "foxtail, green; 31 g ai/ha", "value": 100}, {"measurement": "Plant response rating, Foxtail, Green", "setting": "foxtail, green; 62 g ai/ha", "value": 100}, {"measurement": "Plant response rating, Foxtail, Green", "setting": "foxtail, green; 125 g ai/ha", "value": 100}, {"measurement": "Plant response rating, Foxtail, Green", "setting": "foxtail, green; 250 g ai/ha", "value": 100}]}]}
